Experimental data taken from ChEMBL document CHEMBL5465560, “Selectivity Literature for EUbOPEN Chemogenomic Library” (2024).

Columns and labels:
[1] = target: RAF proto-oncogene serine/threonine-protein kinase (Homo sapiens) (UniProt P04049); settings: at 1 µM
[2] = target: Mitogen-activated protein kinase kinase kinase kinase 4 (Homo sapiens, UniProt O95819); settings: at 1 µM
[3] = target: Receptor-interacting serine/threonine-protein kinase 2 (Homo sapiens, UniProt O43353); settings: at 1 µM
Chain of Receptor-interacting serine/threonine-protein kinase 2 (O43353 whole entry): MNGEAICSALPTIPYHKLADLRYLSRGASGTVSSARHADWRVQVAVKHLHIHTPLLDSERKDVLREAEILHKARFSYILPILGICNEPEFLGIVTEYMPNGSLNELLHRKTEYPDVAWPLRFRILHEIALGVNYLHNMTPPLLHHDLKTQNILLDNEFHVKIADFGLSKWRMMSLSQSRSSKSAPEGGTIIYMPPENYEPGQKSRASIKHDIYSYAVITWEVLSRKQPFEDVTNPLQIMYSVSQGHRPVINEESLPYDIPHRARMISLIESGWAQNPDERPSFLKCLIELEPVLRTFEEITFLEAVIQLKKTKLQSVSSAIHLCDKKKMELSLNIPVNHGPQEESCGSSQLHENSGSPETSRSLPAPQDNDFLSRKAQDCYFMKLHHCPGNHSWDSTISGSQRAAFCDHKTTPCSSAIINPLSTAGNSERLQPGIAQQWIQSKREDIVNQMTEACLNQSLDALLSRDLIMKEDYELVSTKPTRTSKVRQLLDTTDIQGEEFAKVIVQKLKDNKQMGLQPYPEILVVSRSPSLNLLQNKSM

[4] = target: Vascular endothelial growth factor receptor 3 (Homo sapiens, UniProt P35916); settings: at 1 µM
[5] = target: Vascular endothelial growth factor receptor 1 (Homo sapiens) (UniProt P17948); settings: at 1 µM
[6] = target: Platelet-derived growth factor receptor alpha (Homo sapiens, UniProt P16234); settings: at 1 µM
Chain of Platelet-derived growth factor receptor alpha (P16234 whole entry): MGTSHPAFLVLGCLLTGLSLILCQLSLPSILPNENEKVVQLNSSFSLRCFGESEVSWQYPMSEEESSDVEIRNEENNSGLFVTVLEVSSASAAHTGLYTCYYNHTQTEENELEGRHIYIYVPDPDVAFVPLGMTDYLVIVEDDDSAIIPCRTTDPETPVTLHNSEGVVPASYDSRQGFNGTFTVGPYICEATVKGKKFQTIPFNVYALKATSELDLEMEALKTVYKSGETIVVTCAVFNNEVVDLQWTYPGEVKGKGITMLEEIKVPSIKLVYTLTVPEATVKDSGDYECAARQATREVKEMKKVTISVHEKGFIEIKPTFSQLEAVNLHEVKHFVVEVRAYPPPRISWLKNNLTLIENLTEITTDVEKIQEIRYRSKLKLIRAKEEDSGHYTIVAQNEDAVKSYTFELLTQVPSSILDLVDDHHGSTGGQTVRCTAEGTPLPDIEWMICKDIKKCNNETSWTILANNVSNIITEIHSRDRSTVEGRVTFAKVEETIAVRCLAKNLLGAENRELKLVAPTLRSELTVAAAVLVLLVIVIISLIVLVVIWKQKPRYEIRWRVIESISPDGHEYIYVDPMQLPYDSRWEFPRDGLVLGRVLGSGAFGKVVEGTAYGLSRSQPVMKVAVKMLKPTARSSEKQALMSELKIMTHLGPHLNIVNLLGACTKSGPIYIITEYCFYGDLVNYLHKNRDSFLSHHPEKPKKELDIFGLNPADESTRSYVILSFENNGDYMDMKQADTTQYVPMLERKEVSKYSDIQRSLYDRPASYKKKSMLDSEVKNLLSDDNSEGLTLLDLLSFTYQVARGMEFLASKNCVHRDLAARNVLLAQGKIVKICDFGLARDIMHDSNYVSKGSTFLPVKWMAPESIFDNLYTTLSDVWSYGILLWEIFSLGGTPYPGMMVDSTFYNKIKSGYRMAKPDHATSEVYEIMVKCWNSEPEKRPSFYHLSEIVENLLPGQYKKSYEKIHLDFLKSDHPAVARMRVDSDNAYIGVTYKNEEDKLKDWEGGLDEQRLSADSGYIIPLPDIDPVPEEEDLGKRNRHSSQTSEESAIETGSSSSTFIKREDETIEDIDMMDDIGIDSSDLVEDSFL

[7] = target: Vascular endothelial growth factor receptor 2 (Homo sapiens, UniProt P35968); settings: at 1 µM
Misshapen-like kinase 1 = Misshapen-like kinase 1 (Homo sapiens, UniProt Q8N4C8); settings: at 1 µM
[8] = tested on: Platelet-derived growth factor receptor alpha (Homo sapiens), P16234 [V561D]; settings: at 1 µM
Chain of Platelet-derived growth factor receptor alpha (Homo sapiens), P16234 [V561D] (P16234 whole entry V561D): as the sequence (P16234 whole entry) above, with V561D counted along it

[9] = target: T1, Cyclin-G-associated kinase (Homo sapiens) (UniProt O14976); assay: Selectivity interaction (Ambit kinase binding assay panel) EUB0000608a GAK; settings: at 10 µM
T1 sequence (whole entry): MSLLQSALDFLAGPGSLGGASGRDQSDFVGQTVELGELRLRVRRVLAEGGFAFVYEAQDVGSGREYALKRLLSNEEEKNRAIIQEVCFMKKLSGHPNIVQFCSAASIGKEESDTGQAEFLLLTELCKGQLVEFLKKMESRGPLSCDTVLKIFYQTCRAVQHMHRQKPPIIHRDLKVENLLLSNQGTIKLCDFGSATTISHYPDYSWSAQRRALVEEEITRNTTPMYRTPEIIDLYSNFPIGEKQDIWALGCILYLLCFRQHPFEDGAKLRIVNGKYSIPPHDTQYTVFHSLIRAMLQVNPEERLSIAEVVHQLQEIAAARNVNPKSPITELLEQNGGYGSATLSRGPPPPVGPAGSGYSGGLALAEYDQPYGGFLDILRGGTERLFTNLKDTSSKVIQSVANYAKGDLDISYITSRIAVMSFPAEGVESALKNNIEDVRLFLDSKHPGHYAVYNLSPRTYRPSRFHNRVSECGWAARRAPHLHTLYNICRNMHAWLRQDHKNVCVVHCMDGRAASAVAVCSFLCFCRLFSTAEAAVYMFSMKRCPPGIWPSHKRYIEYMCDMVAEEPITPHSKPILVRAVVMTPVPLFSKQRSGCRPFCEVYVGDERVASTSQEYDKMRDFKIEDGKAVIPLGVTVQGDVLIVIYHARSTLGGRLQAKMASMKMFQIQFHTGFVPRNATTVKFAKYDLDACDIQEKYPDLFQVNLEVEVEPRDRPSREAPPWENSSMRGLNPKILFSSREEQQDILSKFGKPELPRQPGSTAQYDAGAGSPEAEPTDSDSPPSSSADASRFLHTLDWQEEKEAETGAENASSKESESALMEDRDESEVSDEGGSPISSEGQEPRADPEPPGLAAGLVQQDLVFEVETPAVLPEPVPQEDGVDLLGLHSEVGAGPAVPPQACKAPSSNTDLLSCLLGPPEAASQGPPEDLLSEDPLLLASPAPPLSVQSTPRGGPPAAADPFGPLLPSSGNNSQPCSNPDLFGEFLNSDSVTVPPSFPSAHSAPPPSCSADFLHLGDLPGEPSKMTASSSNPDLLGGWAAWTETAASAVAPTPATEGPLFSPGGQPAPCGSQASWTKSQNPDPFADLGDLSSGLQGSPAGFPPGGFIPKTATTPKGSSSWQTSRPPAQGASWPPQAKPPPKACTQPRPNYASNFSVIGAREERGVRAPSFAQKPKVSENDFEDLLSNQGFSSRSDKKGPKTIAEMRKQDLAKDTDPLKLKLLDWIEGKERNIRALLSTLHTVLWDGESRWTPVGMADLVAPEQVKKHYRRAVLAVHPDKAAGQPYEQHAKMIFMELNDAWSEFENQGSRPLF

[10] = target: T2, Serine/threonine-protein kinase PLK4 (Homo sapiens) (UniProt O00444); assay: Selectivity interaction (Ambit kinase binding assay panel) EUB0000608a PLK4; settings: at 10 µM
T2 sequence (whole entry): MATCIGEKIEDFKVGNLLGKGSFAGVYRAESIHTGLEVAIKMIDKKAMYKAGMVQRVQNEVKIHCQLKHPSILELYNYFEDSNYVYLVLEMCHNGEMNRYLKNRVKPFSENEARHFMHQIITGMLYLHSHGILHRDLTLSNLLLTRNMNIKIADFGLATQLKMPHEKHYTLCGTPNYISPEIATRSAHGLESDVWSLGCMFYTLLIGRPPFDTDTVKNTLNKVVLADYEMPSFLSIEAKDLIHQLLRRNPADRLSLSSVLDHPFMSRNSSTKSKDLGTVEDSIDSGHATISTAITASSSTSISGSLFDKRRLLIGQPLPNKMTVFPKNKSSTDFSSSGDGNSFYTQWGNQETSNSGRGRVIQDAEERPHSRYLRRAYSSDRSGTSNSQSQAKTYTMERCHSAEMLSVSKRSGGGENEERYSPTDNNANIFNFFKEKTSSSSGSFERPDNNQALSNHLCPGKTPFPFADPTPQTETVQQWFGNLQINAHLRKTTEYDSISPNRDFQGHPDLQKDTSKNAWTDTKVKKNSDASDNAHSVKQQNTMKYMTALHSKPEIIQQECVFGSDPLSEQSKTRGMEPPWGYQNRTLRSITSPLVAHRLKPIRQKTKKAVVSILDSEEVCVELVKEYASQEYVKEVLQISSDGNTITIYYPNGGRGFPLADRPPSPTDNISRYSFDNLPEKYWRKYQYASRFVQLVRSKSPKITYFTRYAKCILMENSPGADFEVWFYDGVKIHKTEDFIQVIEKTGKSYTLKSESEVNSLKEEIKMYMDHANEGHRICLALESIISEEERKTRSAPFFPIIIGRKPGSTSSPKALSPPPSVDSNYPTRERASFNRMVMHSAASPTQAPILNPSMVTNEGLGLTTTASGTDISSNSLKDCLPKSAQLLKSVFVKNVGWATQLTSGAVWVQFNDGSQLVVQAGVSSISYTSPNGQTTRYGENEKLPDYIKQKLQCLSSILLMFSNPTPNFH

[11] = target: Serine/threonine-protein kinase PLK3 (Homo sapiens, UniProt Q9H4B4); assay: Selectivity interaction (Ambit kinase binding assay panel) EUB0000608a PLK3; settings: at 10 µM
[12] = target: T3, Dual specificity protein kinase TTK (Homo sapiens) (UniProt P33981); assay: Selectivity interaction (Ambit kinase binding assay panel) EUB0000608a TTK; settings: at 10 µM
T3 sequence (whole entry): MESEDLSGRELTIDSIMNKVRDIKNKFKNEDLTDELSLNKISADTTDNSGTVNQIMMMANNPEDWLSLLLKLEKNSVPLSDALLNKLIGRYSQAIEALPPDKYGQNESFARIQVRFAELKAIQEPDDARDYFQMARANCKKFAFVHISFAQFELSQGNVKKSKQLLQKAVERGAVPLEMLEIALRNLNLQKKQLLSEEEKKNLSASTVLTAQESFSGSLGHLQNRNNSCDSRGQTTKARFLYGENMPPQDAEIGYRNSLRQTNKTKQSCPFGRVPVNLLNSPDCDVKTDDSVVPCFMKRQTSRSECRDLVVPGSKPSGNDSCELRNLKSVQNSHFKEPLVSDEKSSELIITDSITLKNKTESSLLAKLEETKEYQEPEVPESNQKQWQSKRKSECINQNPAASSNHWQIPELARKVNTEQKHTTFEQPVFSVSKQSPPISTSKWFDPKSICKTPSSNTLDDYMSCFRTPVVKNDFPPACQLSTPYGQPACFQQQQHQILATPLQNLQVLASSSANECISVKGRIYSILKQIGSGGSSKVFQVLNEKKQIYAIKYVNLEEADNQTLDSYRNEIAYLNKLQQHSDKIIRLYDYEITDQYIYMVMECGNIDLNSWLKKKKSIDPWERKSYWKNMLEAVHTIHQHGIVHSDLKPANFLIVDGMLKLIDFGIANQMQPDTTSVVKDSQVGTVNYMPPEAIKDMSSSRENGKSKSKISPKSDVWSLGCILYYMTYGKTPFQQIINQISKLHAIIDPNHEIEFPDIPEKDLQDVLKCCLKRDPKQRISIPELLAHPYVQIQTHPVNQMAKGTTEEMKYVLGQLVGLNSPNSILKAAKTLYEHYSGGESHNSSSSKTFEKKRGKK

[13] = target: Receptor-type tyrosine-protein kinase FLT3 (Homo sapiens) (UniProt P36888); assay: Selectivity interaction (Ambit kinase binding assay panel) EUB0000608a FLT3; settings: at 10 µM
Focal adhesion kinase 1 = Focal adhesion kinase 1 (Homo sapiens, UniProt Q05397); assay: Selectivity interaction (Ambit kinase binding assay panel) EUB0000608a PTK2; settings: at 10 µM
Chain of Focal adhesion kinase 1 (Q05397 2-1052 limits assumed): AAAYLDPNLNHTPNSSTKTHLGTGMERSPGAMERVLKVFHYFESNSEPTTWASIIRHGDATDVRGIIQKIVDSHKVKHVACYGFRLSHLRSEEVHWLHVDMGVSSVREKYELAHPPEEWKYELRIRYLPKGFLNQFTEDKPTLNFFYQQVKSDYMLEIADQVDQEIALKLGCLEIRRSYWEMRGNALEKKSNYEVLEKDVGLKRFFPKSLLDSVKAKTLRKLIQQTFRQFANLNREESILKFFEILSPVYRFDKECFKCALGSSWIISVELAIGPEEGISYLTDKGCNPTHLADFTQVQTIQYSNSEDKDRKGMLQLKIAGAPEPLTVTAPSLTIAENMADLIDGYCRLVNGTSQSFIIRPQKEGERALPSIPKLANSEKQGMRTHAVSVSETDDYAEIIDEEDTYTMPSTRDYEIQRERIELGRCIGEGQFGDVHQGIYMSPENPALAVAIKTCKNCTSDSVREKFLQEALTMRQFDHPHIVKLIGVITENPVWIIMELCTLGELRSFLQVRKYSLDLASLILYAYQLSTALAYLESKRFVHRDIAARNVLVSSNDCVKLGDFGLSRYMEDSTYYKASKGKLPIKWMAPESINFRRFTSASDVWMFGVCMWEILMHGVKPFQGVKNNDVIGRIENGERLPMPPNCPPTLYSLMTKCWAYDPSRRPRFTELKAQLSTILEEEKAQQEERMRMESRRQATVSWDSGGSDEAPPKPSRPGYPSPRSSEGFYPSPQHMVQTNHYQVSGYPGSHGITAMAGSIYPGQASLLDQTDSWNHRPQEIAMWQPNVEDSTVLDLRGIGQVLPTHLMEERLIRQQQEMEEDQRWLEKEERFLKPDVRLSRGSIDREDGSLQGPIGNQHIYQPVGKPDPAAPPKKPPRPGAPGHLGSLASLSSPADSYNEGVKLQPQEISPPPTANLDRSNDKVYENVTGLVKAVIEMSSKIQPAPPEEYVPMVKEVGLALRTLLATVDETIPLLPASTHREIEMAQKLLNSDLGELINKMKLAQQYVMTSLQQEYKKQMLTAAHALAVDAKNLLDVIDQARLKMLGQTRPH

[14] = target: Calcium/calmodulin-dependent protein kinase type II subunit alpha (Homo sapiens, UniProt Q9UQM7); assay: Selectivity interaction (SelectScreen kinase panel (Invitrogen)) EUB0000133b CAMK2A; settings: at 1 µM
Chain of Calcium/calmodulin-dependent protein kinase type II subunit alpha (Q9UQM7 whole entry): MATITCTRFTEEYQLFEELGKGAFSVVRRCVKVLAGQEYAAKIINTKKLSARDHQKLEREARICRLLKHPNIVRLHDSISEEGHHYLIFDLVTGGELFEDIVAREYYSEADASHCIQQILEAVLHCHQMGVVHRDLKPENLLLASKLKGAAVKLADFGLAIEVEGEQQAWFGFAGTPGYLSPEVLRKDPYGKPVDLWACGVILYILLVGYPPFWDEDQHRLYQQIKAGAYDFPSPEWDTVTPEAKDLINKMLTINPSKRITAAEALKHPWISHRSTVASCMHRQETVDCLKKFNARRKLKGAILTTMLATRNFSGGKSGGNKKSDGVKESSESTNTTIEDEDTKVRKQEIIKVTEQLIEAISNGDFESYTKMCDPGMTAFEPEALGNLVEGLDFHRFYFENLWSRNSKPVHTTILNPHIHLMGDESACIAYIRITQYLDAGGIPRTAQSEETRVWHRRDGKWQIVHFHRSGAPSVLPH

[15] = target: Tyrosine-protein kinase Fgr (Homo sapiens) (UniProt P09769); assay: Selectivity interaction (SelectScreen kinase panel (Invitrogen)) EUB0000133b FGR; settings: at 1 µM
[16] = target: NT-3 growth factor receptor (Homo sapiens, UniProt Q16288); assay: Selectivity interaction (SelectScreen kinase panel (Invitrogen)) EUB0000133b NTRK3; settings: at 1 µM
[17] = target: Tyrosine-protein kinase Blk (Homo sapiens) (UniProt P51451); assay: Selectivity interaction (SelectScreen kinase panel (Invitrogen)) EUB0000133b BLK; settings: at 1 µM
[18] = target: Fibroblast growth factor receptor 2 (Homo sapiens) (UniProt P21802); assay: Selectivity interaction (SelectScreen kinase panel (Invitrogen)) EUB0000133b FGFR2; settings: at 1 µM
Chain of Fibroblast growth factor receptor 2 (Homo sapiens) (P21802 22-821 limits assumed): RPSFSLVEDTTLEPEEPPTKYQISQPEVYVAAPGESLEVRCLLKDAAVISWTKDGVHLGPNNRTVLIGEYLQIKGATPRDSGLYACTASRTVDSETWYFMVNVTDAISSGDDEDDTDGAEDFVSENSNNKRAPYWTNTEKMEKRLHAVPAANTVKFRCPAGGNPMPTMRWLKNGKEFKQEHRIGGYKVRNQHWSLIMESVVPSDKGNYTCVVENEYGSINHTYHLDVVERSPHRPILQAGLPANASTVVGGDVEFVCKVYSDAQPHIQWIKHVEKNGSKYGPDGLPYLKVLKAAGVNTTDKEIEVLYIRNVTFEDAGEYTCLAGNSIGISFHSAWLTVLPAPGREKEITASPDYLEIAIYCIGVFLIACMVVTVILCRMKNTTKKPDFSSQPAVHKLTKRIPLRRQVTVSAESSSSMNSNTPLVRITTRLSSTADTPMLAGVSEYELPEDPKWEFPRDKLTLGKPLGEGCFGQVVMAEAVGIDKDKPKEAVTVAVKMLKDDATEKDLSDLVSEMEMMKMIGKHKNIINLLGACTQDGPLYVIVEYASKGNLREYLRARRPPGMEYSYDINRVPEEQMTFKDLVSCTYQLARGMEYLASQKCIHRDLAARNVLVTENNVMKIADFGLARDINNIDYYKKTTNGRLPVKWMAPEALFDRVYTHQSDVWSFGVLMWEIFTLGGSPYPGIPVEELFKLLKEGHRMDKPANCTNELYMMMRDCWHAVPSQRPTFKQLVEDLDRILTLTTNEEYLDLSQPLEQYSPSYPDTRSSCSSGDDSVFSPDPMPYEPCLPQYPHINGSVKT

[19] = target: Ephrin type-A receptor 2 (Homo sapiens) (UniProt P29317); assay: Selectivity interaction (SelectScreen kinase panel (Invitrogen)) EUB0000133b EPHA2; settings: at 1 µM
[20] = target: MAP kinase-activated protein kinase 3 (Homo sapiens) (UniProt Q16644); assay: Selectivity interaction (SelectScreen kinase panel (Invitrogen)) EUB0000133b MAPKAPK3; settings: at 1 µM
Chain of MAP kinase-activated protein kinase 3 (Homo sapiens) (Q16644 whole entry, looked up): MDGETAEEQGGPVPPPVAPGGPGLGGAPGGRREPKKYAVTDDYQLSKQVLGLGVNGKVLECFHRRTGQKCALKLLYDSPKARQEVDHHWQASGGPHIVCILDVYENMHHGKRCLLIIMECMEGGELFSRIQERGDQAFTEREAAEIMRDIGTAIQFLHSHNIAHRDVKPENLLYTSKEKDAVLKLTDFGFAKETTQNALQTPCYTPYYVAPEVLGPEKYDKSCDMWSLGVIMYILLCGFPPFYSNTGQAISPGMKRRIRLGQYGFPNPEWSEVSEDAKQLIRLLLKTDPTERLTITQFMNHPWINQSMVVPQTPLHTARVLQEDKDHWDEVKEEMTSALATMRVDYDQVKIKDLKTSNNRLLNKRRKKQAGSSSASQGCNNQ

Ephrin type-A receptor 4 = Ephrin type-A receptor 4 (Homo sapiens, UniProt P54764); assay: Selectivity interaction (SelectScreen kinase panel (Invitrogen)) EUB0000133b EPHA4; settings: at 1 µM

Chain of RAF proto-oncogene serine/threonine-protein kinase (Homo sapiens) (P04049 whole entry): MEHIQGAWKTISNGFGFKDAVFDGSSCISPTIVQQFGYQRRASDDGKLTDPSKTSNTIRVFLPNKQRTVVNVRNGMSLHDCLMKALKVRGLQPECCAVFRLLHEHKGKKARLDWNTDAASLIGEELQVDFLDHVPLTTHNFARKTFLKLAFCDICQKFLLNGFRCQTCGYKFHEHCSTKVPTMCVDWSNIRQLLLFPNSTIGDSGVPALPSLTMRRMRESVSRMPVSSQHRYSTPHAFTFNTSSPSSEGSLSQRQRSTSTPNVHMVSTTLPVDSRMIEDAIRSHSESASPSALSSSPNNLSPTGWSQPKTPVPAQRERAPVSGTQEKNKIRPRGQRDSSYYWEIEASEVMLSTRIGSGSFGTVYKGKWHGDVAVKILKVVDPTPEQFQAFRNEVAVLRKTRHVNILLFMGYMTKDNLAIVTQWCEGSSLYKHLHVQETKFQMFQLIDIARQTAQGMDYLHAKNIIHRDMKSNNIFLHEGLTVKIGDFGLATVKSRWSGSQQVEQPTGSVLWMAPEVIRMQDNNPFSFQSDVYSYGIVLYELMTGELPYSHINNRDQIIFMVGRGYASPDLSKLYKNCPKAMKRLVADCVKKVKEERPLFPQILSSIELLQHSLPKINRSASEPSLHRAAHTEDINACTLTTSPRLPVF

Compound: OCCn1cc(-c2ccc3c(c2)CCC3=NO)c(-c2ccncc2)n1
- % of control [1]: 8%

Compound: Cc1cccc(-c2[nH]c(CNc3ccccc3F)nc2-c2ccc3ncnn3c2)n1
- % of residual activity [2]: 41%
- % of residual activity [3]: 7%
- % of residual activity [4]: 28%
- % of residual activity [5]: 38%
- % of residual activity [6]: 47%
- % of residual activity [7]: 11%
- % of residual activity (Misshapen-like kinase 1): 21%
- % of residual activity [8]: 43%

Compound: CCOc1cc(N2CCC(O)CC2)ccc1Nc1ncc2c(n1)N(C1CCCC1)CCC(=O)N2C
- % of control [9]: 2%
- % of control [10]: 27%
- % of control [11]: 15%
- % of control [12]: 3.2%
- % of control [13]: 0%
- % of control (Focal adhesion kinase 1): 24%

Compound: COc1cc(Nc2ncc3c(n2)-c2ccc(Cl)cc2C(c2c(F)cccc2OC)=NC3)ccc1C(=O)O
- % of inhibition [14]: 95%
- % of inhibition [15]: 97%
- % of inhibition [16]: 91%
- % of inhibition [17]: 92%
- % of inhibition [18]: 90%
- % of inhibition [19]: 100%
- % of inhibition [20]: 91%
- % of inhibition (Ephrin type-A receptor 4): 94%
